Assay results as given in US10253018B2, “Apoptosis signal-regulating kinase 1 inhibitors and methods of use thereof” (ENANTA PHARMACEUTICALS, INC., priority 2017, dated 2019).

biological target: ASK1 (Homo sapiens (Human), UniProt Q99683); test: HTRF KinEASE Assay (TR-FRET), inhibition of ASK1; assay type: biochemical; details: 5 nM ASK1 kinase, 1 uM STK3 peptide substrate, 100 uM ATP, 3 hours
Excerpt: Assays HTRF® KinEASE™ Assay ASK1 was purchased from Thermofisher (Catalogue # PV4011), ATP was purchased from Sigma (Catalogue # A7699), HTRF® KinEASE™ Assay System was obtained from Cisbio (Bedford, Mass.). ½ Area plate was purchased from Perkin Elmer (Catalogue # #6005560). HTRF® KinEASE™-STK is a generic method for measuring serine/threonine kinase activities using a time-resolved fluorescence resonance energy transfer (TR-FRET) immunoassay. […] The STK3-antibody labeled with Eu^3+-Cryptate and 125 nM streptavidin-XL665 are mixed in a single addition with stop reagents provided by the Cisbio kit used to stop the kinase reaction. Fluorescence is detected using an Envision Multilabeled 2014 reader from PerkinElmer. The Fluorescence is measured at 615 nm (Cryptate) and 665 nm (XL665) and a ratio of 665 nm/615 nm is calculated for each well. The resulting TR-FRET is proportional to the phosphorylation level. Staurosporine was used as the positive control. IC50 was determined by XLfit 5.3.

Chain of ASK1 (Q99683 whole entry): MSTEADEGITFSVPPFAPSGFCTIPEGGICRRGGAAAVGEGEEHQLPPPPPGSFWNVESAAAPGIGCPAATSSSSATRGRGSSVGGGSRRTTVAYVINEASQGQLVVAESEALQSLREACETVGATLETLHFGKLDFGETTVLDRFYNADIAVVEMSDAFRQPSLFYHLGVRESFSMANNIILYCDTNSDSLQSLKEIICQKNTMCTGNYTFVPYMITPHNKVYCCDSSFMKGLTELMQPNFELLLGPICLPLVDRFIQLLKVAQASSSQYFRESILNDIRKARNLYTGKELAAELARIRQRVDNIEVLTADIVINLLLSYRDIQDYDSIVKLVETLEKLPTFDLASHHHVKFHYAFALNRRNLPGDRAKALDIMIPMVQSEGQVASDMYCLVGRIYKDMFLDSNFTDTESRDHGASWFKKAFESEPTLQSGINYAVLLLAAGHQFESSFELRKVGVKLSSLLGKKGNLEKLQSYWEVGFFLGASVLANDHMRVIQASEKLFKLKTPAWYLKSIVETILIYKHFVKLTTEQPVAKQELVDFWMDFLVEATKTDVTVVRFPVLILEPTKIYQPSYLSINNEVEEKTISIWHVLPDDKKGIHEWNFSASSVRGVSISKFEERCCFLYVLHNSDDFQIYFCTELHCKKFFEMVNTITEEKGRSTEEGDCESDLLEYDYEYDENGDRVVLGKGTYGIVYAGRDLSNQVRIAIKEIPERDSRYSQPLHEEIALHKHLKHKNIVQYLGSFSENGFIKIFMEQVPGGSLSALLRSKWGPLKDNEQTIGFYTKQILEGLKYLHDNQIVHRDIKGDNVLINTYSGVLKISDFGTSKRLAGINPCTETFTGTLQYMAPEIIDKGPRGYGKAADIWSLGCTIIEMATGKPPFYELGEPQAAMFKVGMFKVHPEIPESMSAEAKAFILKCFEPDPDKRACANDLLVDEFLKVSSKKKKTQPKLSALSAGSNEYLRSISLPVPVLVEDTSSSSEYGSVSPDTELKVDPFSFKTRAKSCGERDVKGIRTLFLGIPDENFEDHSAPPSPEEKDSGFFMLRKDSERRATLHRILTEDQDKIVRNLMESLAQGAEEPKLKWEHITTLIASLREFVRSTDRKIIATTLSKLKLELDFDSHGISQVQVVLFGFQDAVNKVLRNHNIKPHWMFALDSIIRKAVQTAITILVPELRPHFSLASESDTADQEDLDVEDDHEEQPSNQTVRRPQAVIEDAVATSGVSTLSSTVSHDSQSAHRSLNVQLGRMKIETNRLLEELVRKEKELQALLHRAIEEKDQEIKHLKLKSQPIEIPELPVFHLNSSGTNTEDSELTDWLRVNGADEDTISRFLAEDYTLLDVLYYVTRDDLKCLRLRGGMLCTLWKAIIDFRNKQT

First: CC(C)n1cnnc1-c1cccc(NC(=O)c2ccc3nccnc3c2)n1 [Example 1]
Second: CC(C)n1cnnc1-c1cccc(NC(=O)c2ccc3cccnc3c2)n1 [Example 35]
The IC50 of the first is lower: 100 to 1000 nM for the first, over 1000 nM for the second. The first is the more potent here.

`COc1nc2ccc(C(=O)Nc3cccc(-c4nncn4C(C)C)n3)cc2nc1N1CCOCC1` [Example 2] and `CC(C)Oc1nc2ccc(C(=O)Nc3cccc(-c4nncn4C(C)C)n3)cc2nc1N1CCOCC1` [Example 7] fall in the same range of IC50: 100 to 1000 nM for the first, 100 to 1000 nM for the second.

Compared with `COc1nc2cc(F)c(C(=O)Nc3cccc(-c4nncn4C(C)C)n3)cc2nc1N1CCCCC1` [Example 3], `COc1nc2cc(F)c(C(=O)Nc3cccc(-c4nnnn4C(C)C)n3)cc2nc1N1CCCCC1` [Example 16] is higher in IC50: 10 to 100 nM for the first, 100 to 1000 nM for the second.

Compared with `CC(C)Nc1nc2cc(C(=O)Nc3cccc(-c4nncn4C(C)C)n3)ccc2nc1OC(C)C` [Example 4], `COc1nc2ccc(C(=O)Nc3cccc(-c4nncn4C(C)C)n3)cc2nc1NC(C)C` [Example 8] is higher in IC50: 10 to 100 nM for the first, 100 to 1000 nM for the second.

First: COc1nc2ccc(C(=O)Nc3cccc(-c4nncn4C(C)C)n3)cc2nc1N1CCCCC1 [Example 5]
Second: CC(C)Oc1nc2ccc(C(=O)Nc3cccc(-c4nncn4C(C)C)n3)cc2nc1N1CCCCC1 [Example 6]
The IC50 of the first is lower: 100 to 1000 nM for the first, over 1000 nM for the second. The first is the more potent here.

`CC(C)Oc1nc2cc(F)c(C(=O)Nc3cccc(-c4nnnn4C(C)C)n3)cc2nc1N(C)C(C)C` [Example 9] and `CC(C)CN(C)c1nc2cc(C(=O)Nc3cccc(-c4nnnn4C(C)C)n3)c(F)cc2nc1OC(C)C` [Example 12] cannot be ordered by IC50: over 1000 nM for the first, over 1000 nM for the second.

`CC(C)Oc1nc2cc(F)c(C(=O)Nc3cccc(-c4nnnn4C(C)C)n3)cc2nc1OC(C)C` [Example 10] and `CC(C)Nc1nc2cc(C(=O)Nc3cccc(-c4nnnn4C(C)C)n3)c(F)cc2nc1OC(C)C` [Example 14] cannot be ordered by IC50: over 1000 nM for the first, over 1000 nM for the second.

First: CC(C)Oc1nc2cc(F)c(C(=O)Nc3cccc(-c4nncn4C(C)C)n3)cc2nc1OC(C)C [Example 11]
Second: CC(C)Nc1nc2cc(C(=O)Nc3cccc(-c4nncn4C(C)C)n3)c(F)cc2nc1OC(C)C [Example 15]
The IC50 of the first is higher: 100 to 1000 nM for the first, 10 to 100 nM for the second.

Compared with `CC(C)CN(C)c1nc2cc(C(=O)Nc3cccc(-c4nncn4C(C)C)n3)c(F)cc2nc1OC(C)C` [Example 13], `CC(C)Nc1nc2cc(C(=O)Nc3cccc(-c4nnnn4[C@@H](C)CO)n3)c(F)cc2nc1OC(C)C` [Example 17] is higher in IC50: 100 to 1000 nM for the first, over 1000 nM for the second.

`CC(C)n1cnnc1-c1cccc(NC(=O)c2cc3ccccc3cn2)n1` [Example 18] and `CC(C)n1cnnc1-c1cccc(NC(=O)c2cc3cc(Br)ccc3cn2)n1` [Example 19, 6-bromo-N-(6-(4-isopropyl-4H-1,2,4-triazol-3-yl)pyridin-2-yl)isoquinoline-3-carboxamide] fall in the same range of IC50: 1 to 10 nM for the first, 1 to 10 nM for the second.

`CC(C)n1nnnc1-c1cccc(NC(=O)c2cc3cc(Br)ccc3cn2)n1` [Example 20] and `CC(C)n1nnnc1-c1cccc(NC(=O)c2cc3ccccc3cc2F)n1` [Example 41] cannot be ordered by IC50: over 1000 nM for the first, over 1000 nM for the second.

First: CC(C)n1cnnc1-c1cccc(NC(=O)c2cc3cc(N4CCCCC4)ccc3cn2)n1 [Example 21]
Second: CC(C)n1cnnc1-c1cccc(NC(=O)c2ccc3ccc(N4CCCCC4)nc3c2)n1 [Example 26]
The IC50 of the first is lower: 1 to 10 nM for the first, 10 to 100 nM for the second.

First: CC(C)n1cnnc1-c1cccc(NC(=O)c2cc3cc(-n4cnc(C5CC5)c4)ccc3cn2)n1 [Example 22]
Second: CCn1nccc1-c1ccc2cnc(C(=O)Nc3cccc(-c4nncn4C(C)C)n3)cc2c1 [Example 23]
The IC50 of the first is lower: 1 to 10 nM for the first, 10 to 100 nM for the second. The first is the more potent here.

First: CC(C)n1cnnc1-c1cccc(NC(=O)c2ccc3ccc(N4CCOCC4)nc3c2)n1 [Example 24]
Second: CC(C)n1cnnc1-c1cccc(NC(=O)c2ccc3ccc(N4CC5(COC5)C4)nc3c2)n1 [Example 29]
The IC50 of the first is lower: 100 to 1000 nM for the first, over 1000 nM for the second.

First: CC(C)n1cnnc1-c1cccc(NC(=O)c2ccc3ccc(N(C)C)nc3c2)n1 [Example 25]
Second: CC(C)n1cnnc1-c1cccc(NC(=O)c2ccc3ccc(Cl)nc3c2)n1 [Example 34]
The IC50 of the first is higher: over 1000 nM for the first, 100 to 1000 nM for the second. The second is the more potent here.

First: CC(C)n1cnnc1-c1cccc(NC(=O)c2ccc3ccc(N4CCN(C(C)(C)C)CC4)nc3c2)n1 [Example 27]
Second: CC(C)n1cnnc1-c1cccc(NC(=O)c2ccc3ccc(N4CC5CCC(C4)O5)nc3c2)n1 [Example 30]
The IC50 of the first is higher: over 1000 nM for the first, 100 to 1000 nM for the second. The second is the more potent here.

Compared with `CC(C)n1cnnc1-c1cccc(NC(=O)c2ccc3ccc(NC4CCCCC4)nc3c2)n1` [Example 28], `COCCNc1ccc2ccc(C(=O)Nc3cccc(-c4nncn4C(C)C)n3)cc2n1` [Example 33] is lower in IC50: over 1000 nM for the first, 10 to 100 nM for the second. The second is the more potent here.

First: CCN(Cc1ccccc1)c1ccc2ccc(C(=O)Nc3cccc(-c4nncn4C(C)C)n3)cc2n1 [Example 31]
Second: CC(C)n1cnnc1-c1cccc(NC(=O)c2ccc3ccccc3c2)n1 [Example 39]
The IC50 of the first is higher: over 1000 nM for the first, 100 to 1000 nM for the second.

Compared with `CC(C)n1cnnc1-c1cccc(NC(=O)c2ccc3cc(Br)cnc3c2)n1` [Example 36], `CC(C)n1cnnc1-c1cccc(NC(=O)c2ccc3cc(N4CCOCC4)cnc3c2)n1` [Example 38] is lower in IC50: 100 to 1000 nM for the first, 10 to 100 nM for the second.

First: CC(C)n1cnnc1-c1cccc(NC(=O)c2ccc3cc(-c4ccc(C(C)(C)C)cc4)cnc3c2)n1 [Example 37]
Second: CC(C)n1cnnc1-c1cccc(NC(=O)c2cc3ccccc3cc2F)n1 [Example 40]
The IC50 of the first is higher: over 1000 nM for the first, 100 to 1000 nM for the second.
